Laboratory results reported in patent US20260132125A1, “PESTICIDALLY ACTIVE FUSED BICYCLIC HETEROAROMATIC COMPOUNDS” (priority 2022, published 2026).

Experiments:
Assay type in all cases: in vivo
[1] = tested on: Plutella xylostella; assay: Example B5: activity against Plutella xylostella (diamond back moth), artificial diet, eggs; details: 192 h, 8 days after infestation, read-out: effect in at least one of the two categories (mortality or growth inhibition)
Method: 24-well microtiter plates with artificial diet were treated with aqueous test solutions prepared from 10′000 ppm DMSO stock solutions by pipetting. After drying, Plutella eggs were pipetted through a plastic stencil onto a gel blotting paper and the plate was closed with it. The samples were assessed for mortality and growth inhibition in comparison to untreated samples 8 days after infestation. The following compounds gave an effect of at least 80% in at least one of the two categories (mortality or growth inhibition) at an application rate of 200 ppm: P1, P2, P3, P4, P5, P6, P7, P8, P9, P10, P11, P12, P13, P14, P15, P16, P17, P18, P19, P20, P21, P22, P23, P24, P25, P26, P27, P28, P29, P30, P31, P32, P33, P34, P35, P36, P37, P38, P39, P40, P41, P42, P43, P44, P45, P46, P47, P48, P49, P50, P51, P52, P53, P54, P55, P57, P58, P59, P60, P61, P62, P63, P64, P65, P66, P67, P69, P70, P71, P72, P73, P74, P75, P77, P78, P81, P82, P83.

[2] = tested on: Chilo suppressalis; assay: Example B1: activity against Chilo suppressalis (striped rice stemborer), artificial diet; details: for percent control (mortality, anti-feedant effect or growth inhibition) at 200 ppm: 144 h, L2 larvae, 6 days after infestation, read-out: control (at least one of mortality, anti-feedant effect, growth inhibition)
Method: 24-well microtiter plates with artificial diet were treated with aqueous test solutions prepared from 10′000 ppm DMSO stock solutions by pipetting. After drying, the plates were infested with L2 larvae (6-8 per well). The samples were assessed for mortality, anti-feeding effect, and growth inhibition in comparison to untreated samples 6 days after infestation. Control of Chilo suppressalis by a test sample is given when at least one of the categories mortality, anti-feedant effect, and growth inhibition is higher than the untreated sample.

[3] = tested on: Spodoptera littoralis; assay: Example B6: activity against Spodoptera littoralis (Egyptian cotton leaf worm), cotton leaf discs; details: foliar; for percent control (mortality, anti-feedant effect or growth inhibition) at 200 ppm: 72 h, L1 larvae, 3 days after infestation, read-out: control (at least one of mortality, anti-feedant effect, growth inhibition)
Method: Cotton leaf discs were placed onto agar in 24-well microtiter plates and sprayed with aqueous test solutions prepared from 10′000 ppm DMSO stock solutions. After drying the leaf discs were infested with five L1 larvae. The samples were assessed for mortality, anti-feeding effect, and growth inhibition in comparison to untreated samples 3 days after infestation. Control of Spodoptera littoralis by a test sample is given when at least one of the categories mortality, anti-feedant effect, and growth inhibition is higher than the untreated sample.

[4] = tested on: Diabrotica balteata; assay: Example B2: activity against Diabrotica balteata (corn root worm), maize sprouts; details: 96 h, L2 larvae, 4 days after infestation, read-out: effect in at least one of the two categories (mortality or growth inhibition)
Method: Maize sprouts placed onto an agar layer in 24-well microtiter plates were treated with aqueous test solutions prepared from 10′000 ppm DMSO stock solutions by spraying. After drying, the plates were infested with L2 larvae (6 to 10 per well). The samples were assessed for mortality and growth inhibition in comparison to untreated samples 4 days after infestation. The following compounds gave an effect of at least 80% in at least one of the two categories (mortality or growth inhibition) at an application rate of 200 ppm: P1, P2, P3, P4, P5, P7, P8, P9, P10, P11, P12, P13, P14, P15, P16, P17, P18, P19, P20, P21, P22, P23, P24, P25, P26, P27, P28, P29, P30, P31, P33, P34, P35, P36, P37, P38, P39, P40, P41, P42, P43, P45, P46, P47, P48, P49, P50, P51, P52, P53, P55, P57, P58, P59, P60, P61, P62, P63, P64, P65, P66, P67, P69, P71, P75, P81, P82, P83.

Row | SMILES | percent effect (mortality or growth inhibition) at 200 ppm [1] | percent control (mortality, anti-feedant effect or growth inhibition) at 200 ppm [2] | percent control (mortality, anti-feedant effect or growth inhibition) at 200 ppm [3] | percent effect (mortality or growth inhibition) at 200 ppm [4] | mortality at 50 ppm [2] | mortality at 3.12 ppm [3] | mortality at 12.5 ppm ([2]; 12.5 ppm) | mortality at 50 ppm ([3]; 50 ppm)
1 | CCN(C)C(=O)c1cnc(-n2ncnc2[C@H](C)Nc2ncnc3c(C(F)(F)F)cc(Cl)cc23)s1 [Compound P6, 2-[5-[(1S)-1-[[6-chloro-8-(trifluoromethyl)quinazolin-4-yl]amino]ethyl]-1,2,4-triazol-1-yl]-N-ethyl-N-methyl-thiazole-5-carboxamide] | ≥ 80% | ≥ 80% | ≥ 80% |  |  |  |  | 
2 | C[C@H](Nc1ncnc2c(C(F)(F)F)cc(Cl)cc12)c1ncnn1-c1ccc(C(N)=O)nn1 [Compound P20, 6-[5-[(1S)-1-[[6-chloro-8-(trifluoromethyl)quinazolin-4-yl]amino]ethyl]-1,2,4-triazol-1-yl]pyridazine-3-carboxamide] | ≥ 80% | ≥ 80% |  | ≥ 80% |  |  |  | 
3 | C[C@H](Nc1ncnc2c(C(F)(F)F)cc(Cl)cc12)c1ncnn1-c1cc(C(=O)NC2(C#N)CC2)ncn1 [Compound P22, 6-[5-[(1S)-1-[[6-chloro-8-(trifluoromethyl)quinazolin-4-yl]amino]ethyl]-1,2,4-triazol-1-yl]-N-(1-cyanocyclopropyl)pyrimidine-4-carboxamide] | ≥ 80% | ≥ 80% | ≥ 80% | ≥ 80% |  |  |  | 
4 | CON(C)C(=O)c1cc(-n2ncnc2[C@H](C)Nc2ncnc3c(C(F)(F)F)cc(Cl)cc23)ncn1 [Compound P27, 6-[5-[(1S)-1-[[6-chloro-8-(trifluoromethyl)quinazolin-4-yl]amino]ethyl]-1,2,4-triazol-1-yl]-N-methoxy-N-methyl-pyrimidine-4-carboxamide] | ≥ 80% |  | ≥ 80% | ≥ 80% |  |  |  | 
5 | CONC(=O)c1cc(-n2ncnc2[C@H](C)Nc2ncnc3c(C(F)(F)F)cc(Cl)cc23)ncn1 [Compound P28, 6-[5-[(1S)-1-[[6-chloro-8-(trifluoromethyl)quinazolin-4-yl]amino]ethyl]-1,2,4-triazol-1-yl]-N-methoxy-pyrimidine-4-carboxamide] | ≥ 80% | ≥ 80% | ≥ 80% | ≥ 80% |  |  |  | 
6 | C[C@H](Nc1ncnc2c(C(F)(F)F)cc(Cl)cc12)c1ncnn1-c1cc(C(=O)N2CCOCC2)ncn1 [Compound P32, [6-[5-[(1S)-1-[[6-chloro-8-(trifluoromethyl)quinazolin-4-yl]amino]ethyl]-1,2,4-triazol-1-yl]pyrimidin-4-yl]-morpholino-methanone] | ≥ 80% | ≥ 80% | ≥ 80% |  |  |  |  | 
7 | C[C@H](Nc1ncnc2c(C(F)(F)F)cc(Cl)cc12)c1ncnn1-c1cc(C(=O)NC(C)(C#N)C2CC2)ncn1 (stereo partly drawn) [Compound P42, 6-[5-[(1S)-1-[[6-chloro-8-(trifluoromethyl)quinazolin-4-yl]amino]ethyl]-1,2,4-triazol-1-yl]-N-(1-cyano-1-cyclopropyl-ethyl)pyrimidine-4-carboxamide] | ≥ 80% | ≥ 80% | ≥ 80% | ≥ 80% |  |  |  | 
8 | C[C@H](Nc1ncnc2c(C(F)(F)F)cc(Cl)cc12)c1ncnn1-c1cc(C(=O)NC2(C)CS(=O)(=O)C2)ncn1 [Compound P44, 6-[5-[(1S)-1-[[6-chloro-8-(trifluoromethyl)quinazolin-4-yl]amino]ethyl]-1,2,4-triazol-1-yl]-N-(3-methyl-1,1-dioxo-thietan-3-yl)pyrimidine-4-carboxamide] | ≥ 80% |  |  |  |  |  |  | 
9 | C[C@H](Nc1ncnc2c(C(F)(F)F)cc(Cl)cc12)c1ncnn1-c1cc(C(=O)NC2(C)CSC2)ncn1 [Compound P45, 6-[5-[(1S)-1-[[6-chloro-8-(trifluoromethyl)quinazolin-4-yl]amino]ethyl]-1,2,4-triazol-1-yl]-N-(3-methylthietan-3-yl)pyrimidine-4-carboxamide] | ≥ 80% |  | ≥ 80% | ≥ 80% |  |  |  | 
10 | CC(Nc1ncnc2c(C(F)(F)F)cc(Cl)cc12)c1nccnc1-c1cc(C(N)=O)ncn1 (stereo not drawn) [Compound P57, 6-[3-[1-[[6-chloro-8-(trifluoromethyl)quinazolin-4-yl]amino]ethyl]pyrazin-2-yl]pyrimidine-4-carboxamide] | ≥ 80% | ≥ 80% | ≥ 80% | ≥ 80% | 100% | 80% |  | 
11 | CC(Nc1ncnc2c(I)cc(Cl)cc12)c1nccnc1-c1cc(C(N)=O)ncn1 (stereo not drawn) [Compound P58, 6-[3-[1-[(6-chloro-8-iodo-quinazolin-4-yl)amino]ethyl]pyrazin-2-yl]pyrimidine-4-carboxamide] | ≥ 80% | ≥ 80% | ≥ 80% | ≥ 80% |  |  |  | 
12 | C[C@H](Nc1ncnc2c(Cl)cc(I)cc12)c1ncnn1-c1cnc(C(=O)NCC#N)cn1 [Compound P70, 5-[5-[(1S)-1-[(8-chloro-6-iodo-quinazolin-4-yl)amino]ethyl]-1,2,4-triazol-1-yl]-N-(cyanomethyl)pyrazine-2-carboxamide] | ≥ 80% | ≥ 80% | ≥ 80% |  |  |  |  | 
13 | C[C@H](Nc1ncnc2c(Cl)cc(I)cc12)c1ncnn1-c1cnc(C(N)=O)cn1 [Compound P77, 5-[5-[(1S)-1-[(8-chloro-6-iodo-quinazolin-4-yl)amino]ethyl]-1,2,4-triazol-1-yl]pyrazine-2-carboxamide] | ≥ 80% | ≥ 80% |  |  |  |  |  | 
14 | C[C@H](Nc1ncnc2c(C(F)(F)F)cc(Cl)cc12)c1ncnn1-c1cc(C(=O)N(C)CC2CC2)ncn1 [Compound P78, 6-[5-[(1S)-1-[[6-chloro-8-(trifluoromethyl)quinazolin-4-yl]amino]ethyl]-1,2,4-triazol-1-yl]-N-(cyclopropylmethyl)-N-methyl-pyrimidine-4-carboxamide] | ≥ 80% |  |  |  |  |  |  | 
15 | CC(Nc1ncnc2c(C(F)(F)F)cc(Cl)cc12)c1nccnc1-c1ncccn1 (stereo not drawn) [WO 21/083936 P.130, reference compound] |  |  |  |  | 0% | 0% |  | 
16 | C[C@H](Nc1ncnc2c(C(F)(F)F)cc(Cl)cc12)c1ncnn1-c1ncc(C#N)s1 [WO 22/268648 P10, reference compound] |  |  |  |  |  |  | 0% | 
17 | C[C@H](Nc1ncnc2c(Cl)cc(I)cc12)c1ncnn1-c1ncc(C#N)s1 [WO 22/268648 P20, reference compound] |  |  |  |  |  |  |  | 0%
